The pA2 is a measure of antagonist potency on a negative log scale. Read a low pA2 as lower antagonist potency.

This note sets out measurements from patent publication US4772625A, “1,3-dioxan-5-yl-hexenoic acids” (Imperial Chemical Industries PLC, priority 1985, dated 1988).

Experiment [1] relates to TXA2. In words: TXA2 antagonist properties (test not specified; one or other of the standard tests). Conditions: qualitative statement. An excerpt:
As stated earlier, the acids of formula I are antagonists of one or more of the actions of TXA2, for example certain of its actions on blood platelets, the vasculature and/or the lung.

Experiment [2] concerns the target T1, (Oryctolagus cuniculus, UniProt Q6WQI8).
T1 construct: functional contraction assay (pA2)
T1 sequence (Q6WQI8 1-233): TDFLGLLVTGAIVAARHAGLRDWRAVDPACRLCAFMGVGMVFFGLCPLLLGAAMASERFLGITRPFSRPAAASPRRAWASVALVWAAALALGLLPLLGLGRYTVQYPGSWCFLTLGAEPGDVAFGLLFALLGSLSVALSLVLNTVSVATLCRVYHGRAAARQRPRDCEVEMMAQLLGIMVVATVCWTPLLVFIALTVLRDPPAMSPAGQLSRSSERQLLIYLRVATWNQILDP
In words: Test (a): rabbit aortic strip model, TXA2 or U46619 as agonist. The format is cell-based. The following applies: comparison compound. As for the experimental part:
(§1) (a) The rabbit aortic strip model devised by Piper and Vane (Nature, 1969, 223, 29-35) using as agonist a freshly prepared sample of TXA2, generated by addition of arachidonic acid (25 μg) to citrated, platelet rich rabbit plasma (250 μl ) and allowing the mixture to aggregate fully over 90 seconds before use; alternatively the TXA2 mimetic agent known as U46619 (described by R. L. Jones et alia in "Chemistry, Biochemistry and Pharmacological Activity of Prostanoids" edited by S. M. Roberts and F. Scheinmann, at page 211; Pergamon Press, 1979) may be used as the agonist;
(§2) Using the above test procedures (a)-(c), the following representative results have been obtained with the compounds of formula I (X=Y=H) wherein (i) R is isopropyl, (ii) R is t-butyl; or (iii) R is sec-butyl, respectively: […]

Experiment [3] concerns the target T2, U46619 stimulated platelet aggregation (Homo sapiens, UniProt P21731).
T2 construct: aggregating human, citrated, platelet-rich plasma; from tissue; host or cells: human citrated platelet-rich plasma (platelets)
T2 sequence (P21731 1-343): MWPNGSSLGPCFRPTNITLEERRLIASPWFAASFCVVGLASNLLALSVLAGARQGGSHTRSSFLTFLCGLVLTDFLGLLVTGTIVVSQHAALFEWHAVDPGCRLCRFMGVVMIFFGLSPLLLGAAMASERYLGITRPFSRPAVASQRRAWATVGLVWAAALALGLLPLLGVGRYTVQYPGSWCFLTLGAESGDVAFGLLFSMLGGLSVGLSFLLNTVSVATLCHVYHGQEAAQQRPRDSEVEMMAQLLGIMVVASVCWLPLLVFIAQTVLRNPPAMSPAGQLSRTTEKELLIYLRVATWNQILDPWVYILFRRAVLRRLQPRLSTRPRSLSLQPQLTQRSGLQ
In words: Test (b): blood platelet aggregation test, human citrated platelet-rich plasma, U46619 stimulated. The format is cell-based.
Text: (b) a blood platelet aggregation test based on that described by Born (Nature, 1962, 194, 927-929) and involving:
(i) aggregating human, citrated, platelet-rich plasma by addition of the TXA2 mimetic agent U46619 so that a dose-response curve is generated;
(ii) generating a dose-response curve for U46619 stimulated platelet aggregation in the presence of increasing amounts of test compound (generally in the range 10^-5 M to 10^-10 M); and
(iii) calculating a KB value indicating potency of TXA2 antagonism for the test compound, averaged over several concentrations, from the calculated 50% response value for U46619 aggregation in the presence and absence of test compound; and
as §2

For experiment [4], the system named is U46619 induced bronchoconstriction. In words: Test (c): U46619 induced bronchoconstriction, Konzett-Rossler anaesthetised guinea-pig model. Conditions: 2 hours after oral dosing at 0.05 mg/kg. In kind it is in vivo.
Text: (c) a bronchoconstriction test involving measuring the inhibition by a test compound of the bronchoconstriction induced in the Konzett-Rossler, anaesthetised guinea-pig model (as modified by Collier and James, Brit. J. Pharmacol., 1967, 30, 283-307) by intravenous administration of the TXA2 mimetic agent, U46619 and involving:
(i) obtaining a cumulative dose-response curve to U46619 induced bronchoconstriction by intravenous administration of constant volumes of increasing concentrations of U46619 (0.2-4 μg/kg) in physiological saline solution and expressing bronchoconstriction as the maximum of that theoretically obtainable with no air flow to the test animal;
(ii) generating a cumulative dose-response curve to U46619 induced bronchoconstriction at 30 minute intervals for 3 hours after oral dosing of test compound; and
(iii) calculating a dose-ratio for the test compound (that is the ratio of concentration of U46619 required to cause 50% bronchoconstriction in the presence and absence of test compound) indicating the potency of TXA2 antagonism.
as §2

Experiment [5] addresses T3, TXA2 (Oryctolagus cuniculus, UniProt Q6WQI8).
T3 construct: functional contraction assay (pA2)
T3 sequence (Q6WQI8 1-233): T1 sequence (Q6WQI8 1-233)
Put plainly: Test (a): rabbit aortic strip model, TXA2 or U46619 as agonist. The format is cell-based. The following applies: rabbit aortic strip, ±0.05. As for the experimental part: as §1, §2

In experiment [6] the test system is U46619 induced hypertension. In words: Test (d): U46619 induced hypertension in anaesthetised rats. The format is in vivo, rat (Alderley Park strain). As to the method: (d) Male rats (Alderley Park strain) are anaesthetised with sodium pentobarbital and blood pressure is monitored at the carotid artery. The TXA2 mimetic agent U46619 is administered intravenously via the jugular vein at 5 μg/kg to induce a 20-30 mmHg (2640-3940 pascal) increase in systolic blood pressure. The process is repeated twice to ensure adequacy of response. A test compound is then administered either intravenously (via the jugular vein) or orally (via a cannula) directly into the stomach and the animal is challenged with U46619, five minutes after dosing with test compound and then successively every ten minutes until the hypertensive effect of U46619 is no longer blocked.
Similarly, using test procedure (d) referred to above, the following representative results were obtained on inhibition of U46619 induced hypertension with the compounds of formula I referred to above: […]

Where [7] appears, read: 1 hour after oral dose of 0.5 mg/kg.

SMILES strings stand for the structures.

For the compound `CC(C)[C@H]1OC[C@@H](C/C=C\CCCC(=O)O)[C@@H](c2ccccc2)O1` (relative stereo) [5(Z)-7-([2,4,5-cis]-2-isopropyl-4-phenyl-1,3-dioxan-5-yl)heptenoic acid, reference compound], the TXA2 antagonist properties entry in the experiment on TXA2 [1] is given as “signficantly lower TXA2 antagonist properties”. Also, in experiment [2], the pA2 came out at 5.9.
As for `CC(C)[C@H]1OC[C@@H](C/C=C\CCC(=O)O)[C@@H](c2ccccc2O)O1` (relative stereo) [compound (i), 4(Z)-6-([2,4,5-cis]-4-o-hydroxyphenyl-2-isopropyl-1,3-dioxan-5-yl)hexenoicacid], the Kb in experiment [3] amounted to 17.9 nM. In addition, the “dose ratio (U46619 bronchoconstriction)” value in experiment [4] is above 75. The “pA2 (±0.05)” value at TXA2 [5] came to 7.71. In experiment [6] (setting [7]), the “inhibition of U46619 induced hypertension” value (“inhibition” for short) was above 70%.
Turning to `CC(C)(C)[C@H]1OC[C@@H](C/C=C\CCC(=O)O)[C@@H](c2ccccc2O)O1` (relative stereo) [compound (ii), 4(Z)-6-([2,4,5-cis]-2-t-butyl-4-o-hydroxyphenyl-1,3-dioxan-5-yl)hexenoic acid], the Kb in experiment [3] came out at 13.1 nM. In experiment [4], the “dose ratio (U46619 bronchoconstriction)” value is above 110. Further, at TXA2 [5], the “pA2 (±0.05)” value came out at 7.86. Besides, the “inhibition” value in experiment [6] (1 hour after oral dose of 0.1 mg/kg) is recorded as above 75%.
For the compound `CCC(C)C1OCC(CC=CCCC(=O)O)C(c2ccccc2O)O1` (stereo not drawn) [compound (iii), 4(Z)-6-([2,4,5-cis-]-2-sec-butyl-4-o-hydroxyphenyl-1,3-dioxan-5-yl)hexenoic acid], the Kb in experiment [3] was found to be 13.4 nM. Moreover, the “dose ratio (U46619 bronchoconstriction)” value in experiment [4] is recorded as above 75. The “pA2 (±0.05)” value at TXA2 [5] was found to be 7.80. The “inhibition” value in experiment [6] (setting [7]) is above 70%.
